# Test results published in paper PMC9971447 (Asian Pacific Journal of Cancer Prevention : APJCP, 2022).
# Where two headings read alike, the source gives them in different places.
# Assays:
# [1] = system: SW620; test: SRB antiproliferation assay, SW620 colorectal cancer cells; assay type: cell-based; settings: read-out: Cytotoxicity (as of %Control) IC50 value, SW620, 72 h incubations, mean ± SD, n = 3
# [2] = system: T47D; settings: read-out: antiproliferative IC50, T47D cell line; ref AlKhalil et al., 2020; cited from earlier work
# [3] = system: A375.2S cell line; settings: read-out: antiproliferative IC50, A375.2S cell line; ref AlKhalil et al., 2020; cited from earlier work
# [4] = system: SW620; settings: read-out: IC50 value in SW620 cells; ref Mamdooh et al., 2019; cited from earlier work
# [5] = system: HCT116; test: SRB antiproliferation assay, HCT116 colorectal cancer cells; assay type: cell-based
# [6] = system: RAW 264.7 mouse macrophage cell line (nitric oxide synthase readout); test: LPS-triggered NO; assay type: cell-based; settings: for antiinflammation potency compared with indomethacin: LPS-triggered inflammation in RAW macrophages, in words
# [7] = system: MCF7; test: SRB antiproliferation assay, MCF7 breast cancer cells; assay type: cell-based
# [8] = system: SW480; test: SRB antiproliferation assay, SW480 colorectal cancer cells; assay type: cell-based
# [9] = system: PANC1; test: SRB antiproliferation assay, PANC1 pancreatic cells; assay type: cell-based
# [10] = system: T47D; test: SRB antiproliferation assay, T47D breast cancer cells; assay type: cell-based
# [11] = system: colorectal cancer cell lines; settings: ref Mamdooh et al., 2019; cited from earlier work
# [12] = system: CACO2; test: SRB antiproliferation assay, CACO2 colorectal cancer cells; settings: read-out: Cytotoxicity (as of %Control) IC50 value, CACO2, 72 h incubations, mean ± SD, n = 3
# [13] = system: HT29; test: SRB antiproliferation assay, HT29 colorectal cancer cells; assay type: cell-based; settings: read-out: Cytotoxicity (as of %Control) IC50 value, HT29, 72 h incubations, mean ± SD, n = 3
# [14] = Mus musculus, RAW264.7, 24 h, read-out: NOS- IC50 value, LPS 20 μg/mL, RAW264.7, 24h incubations, mean ± SD, n = 3
# [15] = read-out: NOS- IC50 value, LPS 20 μg/mL, RAW264.7, 24h incubations, mean ± SD, n = 3
# [16] = Homo sapiens, MCF7, 72 h, read-out: Cytotoxicity (as of %Control) IC50 value, MCF7, SRB, 72 h incubations, mean ± SD, n = 3
# [17] = Homo sapiens, SW480, 72 h, read-out: Cytotoxicity (as of %Control) IC50 value, SW480, SRB, 72 h incubations, mean ± SD, n = 3
# [18] = Homo sapiens, PANC-1, 72 h, read-out: Cytotoxicity (as of %Control) IC50 value, PANC 1, SRB, 72 h incubations, mean ± SD, n = 3
# [19] = read-out: Cytotoxicity (as of %Control) IC50 value, T47D, SRB, 72 h incubations, mean ± SD, n = 3
# [20] = read-out: Cytotoxicity (as of %Control) IC50 value, MCF7, SRB, 72 h incubations, mean ± SD, n = 3
# [21] = read-out: Cytotoxicity (as of %Control) IC50 value, SW480, SRB, 72 h incubations, mean ± SD, n = 3
# [22] = Homo sapiens, T47D, 72 h, read-out: Cytotoxicity (as of %Control) IC50 value, T47D, SRB, 72 h incubations, mean ± SD, n = 3
smiles,measurement,setting,value
CC(C)c1c(C(=O)Nc2ccccc2)c(-c2ccccc2)c(-c2ccc(F)cc2)n1CC[C@@H](O)C[C@@H](O)CC(=O)O [Atorvastatin],IC50,[1],< 50 µM
same,IC50,[2],34.6 µM
same,IC50,[3],0.0156 µM
same,IC50,[4],0.0018 µM
same,IC50,"[5]; read-out: Cytotoxicity (as of %Control) IC50 value, HCT116, SRB, 72 h incubations, mean ± SD, n = 3",< 50 µM
same,antiinflammation potency compared with indomethacin,[6],substantially more potent
same,IC50,[6]; [14],42 µM
same,IC50,[6]; [15],42.8 ± 7.17 µM
COCc1c(C(C)C)nc(C(C)C)c(/C=C/[C@@H](O)C[C@@H](O)CC(=O)O)c1-c1ccc(F)cc1 [Cerivastatin],IC50,[7]; [16],< 50 µM
same,IC50,[8]; [17],6 µM
same,IC50,"[5]; Homo sapiens, HCT-116, 72 h, read-out: Cytotoxicity (as of %Control) IC50 value, HCT116, SRB, 72 h incubations, mean ± SD, n = 3",2.9 µM
same,IC50,[9]; [18],< 50 µM
same,IC50,[10]; [19],< 50 µM
same,NOS- IC50 value,"[6]; LPS 20 μg/mL, RAW264.7, 24h incubations, mean ± SD, n = 3",lack and noninhibitory
COc1cccc2c1C(=O)c1c(O)c3c(c(O)c1C2=O)C[C@@](O)(C(=O)CO)C[C@@H]3O[C@H]1C[C@H](N)[C@H](O)[C@H](C)O1 [Doxorubicin],activity against CRC cell lines (in words),[11],nanomolar
CC(C)n1c(/C=C/C(O)CC(O)CC(=O)O)c(-c2ccc(F)cc2)c2ccccc21 (stereo not drawn) [Fluvastatin],IC50,[7]; [20],> 50 µM
same,IC50,[9]; [18],> 50 µM
same,IC50,[10]; [19],> 50 µM
same,antiinflammation potency compared with indomethacin,[6],equipotency to indomethacin
same,IC50,[6]; [14],110 ± 20.6 µM
COc1ccc2c(c1)c(CC(=O)O)c(C)n2C(=O)c1ccc(Cl)cc1 [Indomethacin],IC50,[6]; [14],87 µM
same,IC50,[6]; [15],86.5 ± 10.5 µM
CC[C@H](C)C(=O)O[C@H]1C[C@@H](C)C=C2C=C[C@H](C)[C@H](CC[C@@H]3C[C@@H](O)CC(=O)O3)[C@H]21 [Lovastatin],IC50,[12],> 100 µM
same,antiinflammation potency compared with indomethacin,[6],substantially more potent
same,IC50,[6]; [14],42 µM
same,IC50,[6]; [15],41.6 ± 4.34 µM
CC[C@H](C)C(=O)O[C@H]1CCC=C2C=C[C@H](C)[C@H](CC[C@@H]3C[C@@H](O)CC(=O)O3)[C@H]21 [Mevastatin],IC50,[7]; [20],> 50 µM
same,IC50,[8]; [17],< 50 µM
same,IC50,[8]; [21],36 µM
same,IC50,[9]; [18],> 50 µM
same,IC50,[10]; [22],> 50 µM
same,antiinflammation potency compared with indomethacin,[6],inferior antiinflammation potency to indomethacin
same,IC50,[6]; [14],142 ± 17.2 µM
O=C(O)C[C@H](O)C[C@H](O)/C=C/c1c(C2CC2)nc2ccccc2c1-c1ccc(F)cc1 [Pitavastatin],IC50,[7]; [16],> 50 µM
same,IC50,"[9]; read-out: Cytotoxicity (as of %Control) IC50 value, PANC 1, SRB, 72 h incubations, mean ± SD, n = 3",> 50 µM
same,IC50,[10]; [19],> 50 µM
same,antiinflammation potency compared with indomethacin,[6],equipotency to indomethacin
same,IC50,[6]; [14],98.7 ± 1.87 µM
CC[C@H](C)C(=O)O[C@H]1C[C@H](O)C=C2C=C[C@H](C)[C@H](CC[C@@H](O)C[C@@H](O)CC(=O)O)[C@H]21 [Pravastatin],IC50,[9]; [18],> 50 µM
same,IC50,[13],< 50 µM
same,antiinflammation potency compared with indomethacin,[6],inferior antiinflammation potency to indomethacin
same,IC50,[6]; [14],204 ± 14.1 µM
CC(C)c1nc(N(C)S(C)(=O)=O)nc(-c2ccc(F)cc2)c1/C=C/[C@@H](O)C[C@@H](O)CC(=O)O [Rosuvastatin],IC50,[1],15 µM
same,IC50,[7]; [20],1.5 µM
same,IC50,[8]; [21],23 µM
same,IC50,[9]; [18],> 50 µM
same,IC50,[10]; [22],> 50 µM
same,antiinflammation potency compared with indomethacin,[6],equipotency to indomethacin
same,IC50,[6]; [14],74.2 ± 13.1 µM
CCC(C)(C)C(=O)O[C@H]1C[C@@H](C)C=C2C=C[C@H](C)[C@H](CC[C@@H]3C[C@@H](O)CC(=O)O3)[C@H]21 [Simvastatin],antiinflammation potency compared with indomethacin,[6],substantially more potent
same,IC50,[6]; [14],42 µM
same,IC50,[6]; [15],42.5 ± 6.41 µM
O=C(O)c1cn(C2CC2)c2cc(N3CCNCC3)c(F)cc2c1=O [ciprofloxacin],activity against CRC cell lines (in words),[11],did not show any activity
CO/N=C1\CN(c2nc3c(cc2F)c(=O)c(C(=O)O)cn3C2CC2)CC1CN (stereo not drawn) [gemifloxacin],activity against CRC cell lines (in words),[11],active
